The record followed here is ChEMBL document CHEMBL5252531, “2015 Philip S. Portoghese Medicinal Chemistry Lectureship. Curing Hepatitis C Virus Infection with Direct-Acting Antiviral Agents: The Arc of a Medicinal Chemistry Triumph” (J Med Chem, 2016).

The bioavailability is the share of a dose that reaches the circulation, judged against a reference dose that is usually intravenous. A lower bioavailability goes with poor availability. As a reminder, the solubility is the concentration that dissolves in the medium under given conditions. One may read the pEC50 as the negative decadic logarithm of the EC50, by convention in mol/L. A word on the pIC50: it is −log10 of the IC50, conventionally taken in molar units. A high value points to a low IC50.

Series [1] in a line: Oral bioavailability in Sprague-Dawley rat at 10 mg/kg measured after 4 hrs. In kind it is ADME, organism-based. Particulars: in vivo.
Series [2] can be described thus: Solubility of the compound. In kind it is physicochemical.
For series [3], the system named is Hepatitis C virus. As to the kind of experiment: Antiviral activity against HCV GT1a-genotype assessed as inhibition of viral replication. The class given is functional, organism-based, Hepacivirus hominis.
Series [4] relates to Hepatitis C virus. Kind of series: Antiviral activity against HCV GT1b-genotype assessed as viral growth inhibition measured after 24 hrs. In kind it is functional, organism-based, Hepacivirus hominis. Particulars: for pEC50: Hepatitis C virus, GT1b-genotype, 24 h.
For series [5], the system named is Pregnane X receptor (Homo sapiens). Kind of series: PXR activation.
Series [6] deals with T1, Nuclear receptor subfamily 1 group I member 2 (Homo sapiens, UniProt O75469).
T1 sequence (O75469 whole entry): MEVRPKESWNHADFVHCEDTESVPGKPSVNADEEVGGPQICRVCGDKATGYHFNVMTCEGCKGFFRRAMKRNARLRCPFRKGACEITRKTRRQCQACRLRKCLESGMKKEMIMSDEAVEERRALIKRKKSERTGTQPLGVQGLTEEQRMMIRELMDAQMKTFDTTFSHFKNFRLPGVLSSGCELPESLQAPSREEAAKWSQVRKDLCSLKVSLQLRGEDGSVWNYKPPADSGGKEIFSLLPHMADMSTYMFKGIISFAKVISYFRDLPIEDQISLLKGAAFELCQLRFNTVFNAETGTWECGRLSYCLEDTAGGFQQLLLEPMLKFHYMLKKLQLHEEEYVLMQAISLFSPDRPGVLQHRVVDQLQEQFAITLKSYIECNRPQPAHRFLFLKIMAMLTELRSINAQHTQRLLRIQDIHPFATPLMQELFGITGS
As to the kind of experiment: Inhibition of PXR (unknown origin).

Series [7] can be described thus: Clearance in Wistar rat at 10 mg/kg, iv measured after 4 hrs. The class given is ADME, organism-based. Particulars: in vivo.
The nature of series [8]: Clearance in Wistar rat at 10 mg/kg, po measured after 4 hrs. The class given is ADME, organism-based. The conditions noted are these: in vivo.
For series [9], the system named is Hepatitis C virus. As to the kind of experiment: Antiviral activity against HCV GT1b-genotype assessed as inhibition of viral replication measured after 24 hrs. The class given is functional, organism-based, Hepacivirus hominis.
For series [10], the system named is Hepatitis C virus. As to the kind of experiment: Antiviral activity against HCV genotype 1a. In kind it is functional, organism-based, Hepacivirus hominis.
Series [11] is described as follows: Aqueous solubility of the compound at pH 2.2 measured after 24 hrs. The class given is physicochemical.

Structures are written as SMILES. pEC50, pIC50: −log10 of the molar value. Converted amounts (≈) assume the structure as drawn.

For `COc1ccc2c(c1)[C@@H]1C[C@]1(C(=O)N1CC(C)N(C)C(C)C1)Cn1c-2c(C2CCCCC2)c2ccc(C(=O)NS(=O)(=O)N(C)C)cc21` (some centres not stated), the bioavailability in series [1] stood at 17%. The amount in solution in [2] (solubility) came to 34 µg/mL (≈ 51.4 µM). The pEC50 is 9.00 in [3], 8.52 in [4] and less than 4.30 in series [5].

For the compound `COc1ccc2c(c1)C=C(C(=O)N1C[C@@H](C)O[C@@H](C)C1)Cn1c-2c(C2CCCCC2)c2ccc(C(=O)NS(=O)(=O)N(C)C)cc21`, the pIC50 in series [6] is less than 5.00. Further, the negative-log EC50 (pEC50) in series [3] and in series [4] was 7.40 each time.

As for `COc1ccc2c(c1)C1CC1(C(=O)N1CC3CCC(C1)N3C)Cn1c-2c(C2CCCCC2)c2ccc(C(=O)NS(=O)(=O)N(C)C)cc21` (racemic), the figures for the CL in [7] and in series [8] were 20.6 mg/mL/kg and 55.4 mg/mL/kg, respectively. The negative logarithm of the EC50 (pEC50) in series [3] is 7.80; in series [4], 7.41.

Regarding `O=C(O)c1ccc2c(C3CCCCC3)c3n(c2c1)CC(C(=O)N1CCOCC1)Cc1ccccc1-3` (racemic), the values for the pEC50 in series [3] and in series [9] were 8.70 and 6.70, respectively.

For the compound `COc1ccc2c(c1)[C@@H]1C[C@]1(C(=O)N1[C@@H]3CC[C@H]1CN(C)C3)Cn1c-2c(C2CCCCC2)c2ccc(C(=O)NS(=O)(=O)N(C)C)cc21` [BECLABUVIR], in [10], the pEC50 is 6.70. In [11], this compound came in with a solubility at 24 h of more than 1600 µg/mL. Besides, the Activity in series [4] (time 24 hrs) was determined as 1.3 log10 IU/mL.
